# Data reported in paper doi:10.1101/2023.11.24.568596v1 (biorxiv, 2023).
# Assays:
# Conditions in all cases: binder
# [1] = target: Wnk1 (Homo sapiens, UniProt Q9H4A3)
# [2] = target: T1, TLK1 (Homo sapiens, UniProt Q9UKI8)
# T1 sequence (Q9UKI8 1-766): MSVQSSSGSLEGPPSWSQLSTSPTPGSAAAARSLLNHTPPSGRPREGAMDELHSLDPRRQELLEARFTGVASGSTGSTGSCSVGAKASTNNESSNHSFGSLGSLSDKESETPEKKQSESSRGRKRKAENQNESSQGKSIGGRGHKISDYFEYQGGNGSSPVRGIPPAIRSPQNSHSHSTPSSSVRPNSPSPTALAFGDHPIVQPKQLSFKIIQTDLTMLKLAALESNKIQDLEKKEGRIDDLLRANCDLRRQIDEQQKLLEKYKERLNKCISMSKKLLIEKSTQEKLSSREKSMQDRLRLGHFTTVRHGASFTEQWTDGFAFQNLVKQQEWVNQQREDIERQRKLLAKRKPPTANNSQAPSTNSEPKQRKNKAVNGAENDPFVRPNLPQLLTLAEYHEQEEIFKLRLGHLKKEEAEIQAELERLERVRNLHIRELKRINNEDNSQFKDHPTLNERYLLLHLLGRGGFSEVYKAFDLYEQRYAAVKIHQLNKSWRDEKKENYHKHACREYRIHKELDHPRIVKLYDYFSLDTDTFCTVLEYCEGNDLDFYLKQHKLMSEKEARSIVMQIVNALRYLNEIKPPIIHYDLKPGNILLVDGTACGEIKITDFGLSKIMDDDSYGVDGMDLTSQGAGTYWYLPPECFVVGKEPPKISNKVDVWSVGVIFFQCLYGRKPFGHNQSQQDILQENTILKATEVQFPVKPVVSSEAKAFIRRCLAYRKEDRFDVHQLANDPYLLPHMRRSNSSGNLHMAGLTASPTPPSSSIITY
# [3] = target: STLK3 (Homo sapiens, UniProt Q9UEW8)
# [4] = target: DAPK3 (Homo sapiens, UniProt O43293)
# [5] = target: T2, MAP2K7 (Homo sapiens, UniProt O14733)
# T2 sequence (O14733 1-419): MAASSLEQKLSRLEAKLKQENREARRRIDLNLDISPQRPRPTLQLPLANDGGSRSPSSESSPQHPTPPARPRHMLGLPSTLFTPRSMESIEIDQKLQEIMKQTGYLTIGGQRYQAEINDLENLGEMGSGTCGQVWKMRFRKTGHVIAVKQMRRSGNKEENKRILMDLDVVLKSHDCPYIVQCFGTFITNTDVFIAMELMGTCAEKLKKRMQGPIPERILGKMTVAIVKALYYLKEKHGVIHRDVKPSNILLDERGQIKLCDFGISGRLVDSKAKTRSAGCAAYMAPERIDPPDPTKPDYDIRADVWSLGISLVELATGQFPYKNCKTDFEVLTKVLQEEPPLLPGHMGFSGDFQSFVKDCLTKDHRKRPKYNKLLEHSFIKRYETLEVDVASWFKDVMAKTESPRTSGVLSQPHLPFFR
# [6] = target: HIPK2 (Homo sapiens, UniProt Q9H2X6)
# [7] = target: SLK (Homo sapiens, UniProt Q9H2G2)
# [8] = target: T3, TTK (Homo sapiens, UniProt P33981)
# T3 sequence (P33981 1-857): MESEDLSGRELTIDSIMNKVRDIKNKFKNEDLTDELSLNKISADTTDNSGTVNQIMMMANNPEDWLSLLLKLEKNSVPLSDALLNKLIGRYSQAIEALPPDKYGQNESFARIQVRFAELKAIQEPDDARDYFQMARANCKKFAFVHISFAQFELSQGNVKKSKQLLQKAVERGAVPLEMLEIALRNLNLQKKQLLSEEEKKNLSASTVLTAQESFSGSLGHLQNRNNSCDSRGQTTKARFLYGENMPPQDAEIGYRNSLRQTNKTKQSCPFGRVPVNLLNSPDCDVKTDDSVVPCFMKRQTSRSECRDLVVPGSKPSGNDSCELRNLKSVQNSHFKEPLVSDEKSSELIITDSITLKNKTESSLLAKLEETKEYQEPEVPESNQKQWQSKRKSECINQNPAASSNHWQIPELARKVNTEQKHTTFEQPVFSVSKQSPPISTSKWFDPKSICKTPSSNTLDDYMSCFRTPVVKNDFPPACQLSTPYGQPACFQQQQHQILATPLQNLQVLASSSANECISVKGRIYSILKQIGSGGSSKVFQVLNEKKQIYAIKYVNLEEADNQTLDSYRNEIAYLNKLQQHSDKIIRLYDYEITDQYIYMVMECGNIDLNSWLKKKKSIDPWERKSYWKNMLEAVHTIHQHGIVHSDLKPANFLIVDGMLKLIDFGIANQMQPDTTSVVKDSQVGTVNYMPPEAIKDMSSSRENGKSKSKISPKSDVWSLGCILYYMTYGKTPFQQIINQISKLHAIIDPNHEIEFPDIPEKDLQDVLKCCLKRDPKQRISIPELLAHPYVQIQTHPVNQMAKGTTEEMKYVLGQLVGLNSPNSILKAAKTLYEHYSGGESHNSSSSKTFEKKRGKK
# [9] = target: SRPK1 (Homo sapiens, UniProt Q96SB4)
# [10] = target: TAF1 (Homo sapiens, UniProt P21675)
# SLK, sequence (Q9H2G2 whole entry): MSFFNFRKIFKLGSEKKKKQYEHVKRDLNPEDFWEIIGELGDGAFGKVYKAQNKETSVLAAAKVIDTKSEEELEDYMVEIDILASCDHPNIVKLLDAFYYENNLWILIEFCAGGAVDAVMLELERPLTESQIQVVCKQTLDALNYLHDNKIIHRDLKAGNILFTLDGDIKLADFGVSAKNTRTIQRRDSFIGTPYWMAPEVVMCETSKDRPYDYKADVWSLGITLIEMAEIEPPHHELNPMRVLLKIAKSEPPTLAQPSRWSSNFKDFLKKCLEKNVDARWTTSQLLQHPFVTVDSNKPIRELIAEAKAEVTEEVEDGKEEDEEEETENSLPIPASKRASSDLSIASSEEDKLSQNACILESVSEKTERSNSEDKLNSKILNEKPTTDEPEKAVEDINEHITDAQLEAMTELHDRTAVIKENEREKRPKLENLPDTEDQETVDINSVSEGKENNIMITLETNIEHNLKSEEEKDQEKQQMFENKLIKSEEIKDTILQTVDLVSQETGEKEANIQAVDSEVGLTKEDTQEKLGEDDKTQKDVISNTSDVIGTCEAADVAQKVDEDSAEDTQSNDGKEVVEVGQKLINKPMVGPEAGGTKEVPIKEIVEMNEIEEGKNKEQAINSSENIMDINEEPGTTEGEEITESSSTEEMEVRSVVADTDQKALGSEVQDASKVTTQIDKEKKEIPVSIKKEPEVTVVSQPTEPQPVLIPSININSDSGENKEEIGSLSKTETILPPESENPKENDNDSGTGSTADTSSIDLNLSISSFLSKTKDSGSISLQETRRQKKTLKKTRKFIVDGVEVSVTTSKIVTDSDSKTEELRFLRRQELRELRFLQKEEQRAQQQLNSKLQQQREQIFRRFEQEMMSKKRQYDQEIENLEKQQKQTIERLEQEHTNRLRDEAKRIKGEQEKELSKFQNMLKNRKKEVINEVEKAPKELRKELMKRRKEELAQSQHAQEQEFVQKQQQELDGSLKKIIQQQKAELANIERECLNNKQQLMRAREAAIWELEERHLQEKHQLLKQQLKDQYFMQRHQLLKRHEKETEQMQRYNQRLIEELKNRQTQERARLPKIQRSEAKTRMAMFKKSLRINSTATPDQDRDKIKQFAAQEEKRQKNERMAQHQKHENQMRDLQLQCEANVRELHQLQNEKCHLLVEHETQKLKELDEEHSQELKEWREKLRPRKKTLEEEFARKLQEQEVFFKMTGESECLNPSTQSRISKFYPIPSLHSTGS
# SRPK1, sequence (Q96SB4 whole entry): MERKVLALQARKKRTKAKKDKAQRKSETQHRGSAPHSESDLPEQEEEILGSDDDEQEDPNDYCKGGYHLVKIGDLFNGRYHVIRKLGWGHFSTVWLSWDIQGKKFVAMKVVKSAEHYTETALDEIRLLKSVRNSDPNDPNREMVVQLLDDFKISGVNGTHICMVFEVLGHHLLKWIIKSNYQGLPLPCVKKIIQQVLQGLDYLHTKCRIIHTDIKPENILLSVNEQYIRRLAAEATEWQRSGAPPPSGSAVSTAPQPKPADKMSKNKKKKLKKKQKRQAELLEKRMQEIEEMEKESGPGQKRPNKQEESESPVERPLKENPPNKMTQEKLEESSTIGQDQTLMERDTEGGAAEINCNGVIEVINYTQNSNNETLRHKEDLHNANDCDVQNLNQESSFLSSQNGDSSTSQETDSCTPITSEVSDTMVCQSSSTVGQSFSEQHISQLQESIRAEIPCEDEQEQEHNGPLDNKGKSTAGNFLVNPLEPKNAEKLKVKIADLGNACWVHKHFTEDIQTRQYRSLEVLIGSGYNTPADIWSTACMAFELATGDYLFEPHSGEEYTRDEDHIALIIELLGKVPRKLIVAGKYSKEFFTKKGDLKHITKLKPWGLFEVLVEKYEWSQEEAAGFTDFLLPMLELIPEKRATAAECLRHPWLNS
# Wnk1, sequence (Q9H4A3 whole entry): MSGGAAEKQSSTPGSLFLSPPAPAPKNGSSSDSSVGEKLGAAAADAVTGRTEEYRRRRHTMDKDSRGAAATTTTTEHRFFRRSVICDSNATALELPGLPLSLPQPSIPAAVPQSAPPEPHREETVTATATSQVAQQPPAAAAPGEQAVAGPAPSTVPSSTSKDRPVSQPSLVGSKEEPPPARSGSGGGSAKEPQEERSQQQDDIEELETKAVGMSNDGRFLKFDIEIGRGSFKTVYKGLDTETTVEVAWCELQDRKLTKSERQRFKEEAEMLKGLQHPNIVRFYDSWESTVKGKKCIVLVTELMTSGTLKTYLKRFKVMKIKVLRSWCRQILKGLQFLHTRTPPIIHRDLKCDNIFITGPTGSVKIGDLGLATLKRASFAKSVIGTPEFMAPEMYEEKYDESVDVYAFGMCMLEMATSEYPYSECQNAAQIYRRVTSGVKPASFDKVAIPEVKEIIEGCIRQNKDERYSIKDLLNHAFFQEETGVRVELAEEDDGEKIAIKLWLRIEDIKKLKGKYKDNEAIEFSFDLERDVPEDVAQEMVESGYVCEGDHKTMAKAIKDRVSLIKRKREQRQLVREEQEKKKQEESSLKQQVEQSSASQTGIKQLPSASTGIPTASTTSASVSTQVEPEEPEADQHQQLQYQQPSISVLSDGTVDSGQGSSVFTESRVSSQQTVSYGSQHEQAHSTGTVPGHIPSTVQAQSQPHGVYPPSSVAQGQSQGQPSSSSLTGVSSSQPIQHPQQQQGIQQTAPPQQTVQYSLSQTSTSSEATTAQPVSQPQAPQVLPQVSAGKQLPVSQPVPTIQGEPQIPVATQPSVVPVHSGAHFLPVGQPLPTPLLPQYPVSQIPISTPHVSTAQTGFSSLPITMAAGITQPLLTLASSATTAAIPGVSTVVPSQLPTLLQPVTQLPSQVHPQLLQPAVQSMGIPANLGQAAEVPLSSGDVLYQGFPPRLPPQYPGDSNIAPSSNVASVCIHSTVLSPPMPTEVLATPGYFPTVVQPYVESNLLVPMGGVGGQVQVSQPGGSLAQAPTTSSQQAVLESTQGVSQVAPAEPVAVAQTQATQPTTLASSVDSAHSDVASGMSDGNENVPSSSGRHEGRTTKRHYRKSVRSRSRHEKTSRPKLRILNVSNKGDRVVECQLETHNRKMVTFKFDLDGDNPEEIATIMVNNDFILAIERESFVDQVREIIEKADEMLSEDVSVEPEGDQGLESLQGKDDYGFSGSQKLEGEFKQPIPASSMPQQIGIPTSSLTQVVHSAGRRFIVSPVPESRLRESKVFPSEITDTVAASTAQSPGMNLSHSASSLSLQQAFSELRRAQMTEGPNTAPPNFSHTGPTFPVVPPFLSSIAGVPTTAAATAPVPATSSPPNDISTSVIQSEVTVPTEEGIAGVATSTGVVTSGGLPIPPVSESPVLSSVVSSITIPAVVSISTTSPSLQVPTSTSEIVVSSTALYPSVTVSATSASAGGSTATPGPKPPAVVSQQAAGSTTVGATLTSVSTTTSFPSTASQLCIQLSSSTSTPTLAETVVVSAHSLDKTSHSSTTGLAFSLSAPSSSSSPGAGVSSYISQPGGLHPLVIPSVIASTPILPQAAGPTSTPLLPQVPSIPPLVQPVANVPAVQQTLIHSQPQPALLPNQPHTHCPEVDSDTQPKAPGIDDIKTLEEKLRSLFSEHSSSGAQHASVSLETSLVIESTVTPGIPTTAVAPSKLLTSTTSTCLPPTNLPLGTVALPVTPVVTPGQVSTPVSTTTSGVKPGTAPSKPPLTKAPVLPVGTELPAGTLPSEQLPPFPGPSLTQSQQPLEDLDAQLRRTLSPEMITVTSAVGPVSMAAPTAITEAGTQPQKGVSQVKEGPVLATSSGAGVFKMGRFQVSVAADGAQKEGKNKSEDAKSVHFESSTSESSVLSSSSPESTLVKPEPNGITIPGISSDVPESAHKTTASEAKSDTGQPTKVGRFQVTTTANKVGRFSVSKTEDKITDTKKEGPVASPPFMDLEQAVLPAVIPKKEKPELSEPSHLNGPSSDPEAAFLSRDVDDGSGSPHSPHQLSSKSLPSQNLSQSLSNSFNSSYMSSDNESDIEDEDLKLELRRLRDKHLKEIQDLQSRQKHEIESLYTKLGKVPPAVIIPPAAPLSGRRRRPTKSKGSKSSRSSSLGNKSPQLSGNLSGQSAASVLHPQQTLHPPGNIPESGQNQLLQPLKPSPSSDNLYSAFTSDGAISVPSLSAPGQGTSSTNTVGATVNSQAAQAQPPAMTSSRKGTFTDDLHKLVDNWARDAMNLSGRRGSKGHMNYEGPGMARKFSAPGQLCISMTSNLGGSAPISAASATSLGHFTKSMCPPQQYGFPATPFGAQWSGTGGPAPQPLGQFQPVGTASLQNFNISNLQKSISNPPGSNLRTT
# DAPK3, sequence (O43293 whole entry): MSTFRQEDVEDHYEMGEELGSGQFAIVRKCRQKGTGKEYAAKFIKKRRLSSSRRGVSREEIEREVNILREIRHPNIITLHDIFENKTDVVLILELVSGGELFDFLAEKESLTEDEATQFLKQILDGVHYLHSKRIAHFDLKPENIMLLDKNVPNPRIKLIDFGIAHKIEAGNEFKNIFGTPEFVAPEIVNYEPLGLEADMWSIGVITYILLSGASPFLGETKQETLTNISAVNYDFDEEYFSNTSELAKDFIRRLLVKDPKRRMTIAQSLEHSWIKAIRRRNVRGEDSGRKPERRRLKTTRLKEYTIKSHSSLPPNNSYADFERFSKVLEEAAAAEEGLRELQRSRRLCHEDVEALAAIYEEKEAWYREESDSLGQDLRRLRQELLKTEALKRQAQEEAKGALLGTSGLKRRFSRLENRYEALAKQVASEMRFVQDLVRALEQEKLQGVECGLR
smiles,measurement,setting,value
"Cc1cccc(-c2ccc(-c3cc4cnc(NCCCN5CCNCC5)nc4n(CCCCN)c3=O)c(Cl)c2)n1 [compound 29, 8-(4-Aminobutyl)-6-(2-chloro-4-(6-methylpyridin-2-yl)phenyl)-2-((3-(piperazin-1-yl)propyl)amino)pyrido[2,3-d]pyrimidin-7(8H)-one]",ΔTm 29,[1],0.6 °C
same,ΔTm 29,[2],-1.5 °C
same,ΔTm 29,[3],8.8 °C
same,ΔTm 29,[4],0.0 °C
same,ΔTm 29,[5],1.4 °C
same,ΔTm 29,[6],0.6 °C
same,ΔTm 29,[7],3.5 °C
same,ΔTm 29,[8],-0.4 °C
same,ΔTm 29,[9],0.1 °C
same,ΔTm 29,[10],0.2 °C
"Cc1cccc(-c2ccc(-c3cc4cnc(Nc5ccc(CCCO)cc5)nc4n(CCCCN)c3=O)c(Cl)c2)n1 [compound 30, 8-(4-Aminobutyl)-6-(2-chloro-4-(6-methylpyridin-2-yl)phenyl)-2-((4-(3-hydroxypropyl)phenyl)amino)pyrido[2,3-d]pyrimidin-7(8H)-one]",ΔTm 30,[1],4.8 °C
same,ΔTm 30,[2],-0.9 °C
same,ΔTm 30,[3],16.6 °C
same,ΔTm 30,[4],2.9 °C
same,ΔTm 30,[5],6.2 °C
same,ΔTm 30,[6],2.6 °C
same,ΔTm 30,[7],8.6 °C
same,ΔTm 30,[8],5.6 °C
same,ΔTm 30,[9],0.0 °C
same,ΔTm 30,[10],-0.5 °C
"Cc1cccc(-c2ccc(-c3cc4cnc(NCCCN5CCCC5=O)nc4n(CCCCN)c3=O)c(Cl)c2)n1 [compound 27, MR30]",ΔTm MR30 (27),[1],0.8 °C
same,ΔTm MR30 (27),[2],-2.0 °C
same,ΔTm MR30 (27),[3],10.0 °C
same,ΔTm MR30 (27),[4],0.6 °C
same,ΔTm MR30 (27),[5],2.6 °C
same,ΔTm MR30 (27),[6],0.0 °C
same,ΔTm MR30 (27),[7],2.6 °C
same,ΔTm MR30 (27),[8],-0.3 °C
same,ΔTm MR30 (27),[9],-0.2 °C
same,ΔTm MR30 (27),[10],0.0 °C
